This note sets out measurements from patent US9018173B2, “Materials and methods for suppressing inflammatory and neuropathic pain” (Indiana University Research and Technology Corp., priority 2010, dated 2015).

The test system of series [1] is anxiety-associated behavior. As to the kind of experiment: Light-Dark Box test (LDBT). It is filed as in vivo, C57BL6 mice. On the procedure:
The light-dark box test and the elevated plus maze were used as measures of anxiety-associated behaviors. The tail suspension test was performed to evaluate despair- and depression-associated behavior. Anxiety-behavior testing Anxiety occurs when there is conflict between risk and reward. The Light-Dark Box test (LDBT) and the elevated plus maze (EPM) are accepted tests of anxiety-associated behavior that assess the conflict mice have against hiding in enclosed dark areas (i.e., dark box or closed arm) and their tendency to explore novel environments (i.e., white box or open arm). Lalonde, R. & Strazielle, C. […] J. Neurosci. Methods. 171, 48-52 (2008). These tests are also sensitive to anxiolytic drug treatments. Light-Dark Box test as a measure of anxiety-associated behavior. For the light-dark box test (LDBT), there were two adjoined light and dark compartments boxes with a 7 cm square opening to allow mice to move between them. The black box was covered (20 cm×40 cm×30 cm height) and the white box (20 cm×40 cm×30 cm height) was open and illuminated (40 W). Each mouse was placed into the white compartment and the white compartment was video recorded for later analyses using ANY-maze software (version 4.75, Stoelting, Wood Dale, Ill.) which is a video tracking system designed to automate testing in behavioral experiments. The main parameters were duration of time spent in the light box; the latency to enter the dark box; and the number of transitions between the light and dark box.

In series [2] the test system is anxiety-associated behavior. As to the kind of experiment: Elevated plus maze (EPM). It is filed as in vivo, C57BL6 mice.
Series [3] can be described thus: Biodistribution after i.p. injection (dot blot, FITC fluorescence). The conditions noted are these: 25 mg/kg i.p.
The test system of series [4] is depression/despair-associated behavior. As to the kind of experiment: Tail suspension test (TST). It is filed as in vivo, C57BL6 mice. On the procedure: The light-dark box test and the elevated plus maze were used as measures of anxiety-associated behaviors. The tail suspension test was performed to evaluate despair- and depression-associated behavior.
Depression/Despair-behavior testing. Since rodents such as mice and rats display immobile postures when placed in inescapable stressful situations, immobility behavior in the tail suspension test (TST) or forced swim test (FST) is used as a measure of “depression” or “despair”-associated behavior. Furthermore, administering antidepressant treatments prior to testing reduces immobility behavior. Therefore TST and FST are often used to screen novel drugs for depressant or anti-depressant properties.
Tail suspension test as a measure of depression-associated behavior. Immediately following the EPM test, the TST was conducted according to standard procedure between 8:00 AM and 2:00 PM. Cryan, J. F., Mombereau, C., & Vassout, A. The tail suspension test as a model for assessing antidepressant activity: review of pharmacological and genetic studies in mice. Neurosci. Biobehay. Rev. 29, 571-625 (2005). Briefly, each mouse was suspended by the tail at a height of 40 cm by taping the rail to a horizontal bar so that the tail is vertical to the bar. Behavior was video recorded for 5 min and later analyzed by an experimenter, whom was blind to the treatments. […] If a mouse climbed its tail the mouse was gently pulled back down and the trial continued. Mice that climbed their tails for more than 20% of the trial (i.e. >60 seconds) were eliminated from the final analysis. Duration and frequency of immobility was the main parameters measured. Mice injected with the scrambled control peptide were immobile approximately 26% of the TST duration which is equivalent to baseline immobility durations (approximately 27%) observed in C57B16 mice in another recent study.

For series [5], the system named is capsaicin-induced meningeal blood flow changes.
The mark [6] stands for this setting: C57BL6 mice, 10 mg/kg i.p., 1 h after injection, 5 min test.

Residues, ends and D or L forms follow the SMILES beside them. No end group written: not given here.

Take `CC[C@H](C)[C@H](NC(=O)[C@@H](NC(=O)[C@H](CC(C)C)NC(=O)[C@H](C)NC(=O)[C@H](CCC(=O)O)NC(=O)[C@H](Cc1ccccc1)NC(=O)[C@H](Cc1ccc(O)cc1)NC(=O)[C@H](CC(C)C)NC(=O)[C@H](CCSC)NC(=O)[C@H](CCC(=O)O)NC(=O)[C@H](CCCCN)NC(=O)[C@H](C)NC(=O)[C@H](CCC(=O)O)NC(=O)[C@H](Cc1c[nH]c2ccccc12)NC(=O)[C@H](CCCNC(=N)N)NC(=O)[C@H](CCCNC(=N)N)NC(=O)[C@H](CCCNC(=N)N)NC(=O)[C@H](CCC(N)=O)NC(=O)[C@H](CCCNC(=N)N)NC(=O)[C@H](CCCNC(=N)N)NC(=O)[C@H](CCCCN)NC(=O)[C@H](CCCCN)NC(=O)[C@H](CCCNC(=N)N)NC(=O)CNC(=O)[C@@H](N)Cc1ccc(O)cc1)C(C)C)C(=O)N[C@@H](CCC(=O)O)C(=O)O` [TAT-Scramble, reference compound] (H-YGRKKRRQRRRWEAKEMLYFEALVIE-OH; N-terminus and C-terminus assumed): in series [1] (setting [6]), the “Light-Dark Box: Dark box latency to exit” value came out at 53.0 ± 11.5 s and the “Light-Dark Box: Light box entries” value stood at 8.2 ± 0.8. The “LDBT time in the light box” value in series [1] (mouse, in vivo) is given as “approximately 25%”. In series [2] (10 mg/kg), the “EPM time in the open arm compared to the closed arm” value is recorded as “approximately 30%”. Also, in series [2] (setting [6]), the “Elevated Plus Maze: Closed arm entries” value stood at 16.3 ± 2.0, the “Elevated Plus Maze: Closed arm latency to enter” value is given as 6.3 ± 2.5 s, the “Elevated Plus Maze: Closed arm latency to exit” value was found to be 14.7 ± 3.0 s and the “Elevated Plus Maze: Open arm entries” value is listed as 11.5 ± 1.6. Further, in series [2] (setting [6]), the “Elevated Plus Maze: Open arm latency to enter” value is recorded as 5.9 ± 2.3 s and the “Elevated Plus Maze: Open arm latency to exit” value was 14.5 ± 3.1 s. In addition, in series [3] (15 min post-injection), the “tissue distribution (dot blot, anti-TAT antibody)” value was “detected in spleen and largely concentrated in lumbar dorsal root ganglion (DRG) and lumbar section of the spinal cord”. The “tissue distribution (dot blot, anti-TAT antibody)” value in series [3] (1 h post-injection) was “also detected in kidney, brain, spinal cord and was abundant in the DRG”. In addition, the “Tail Suspension Test: Active” value in series [4] (setting [6]) was found to be 221.0 ± 11.3 s. Moreover, the “TST immobility as share of test duration” value in series [4] (mouse, in vivo) is on record as “approximately 26%”.

As for “CGRP8-37: CGRP antagonist (VTHRLAGLLSRSGGVVKNNFVPTNVGSKAF; ends and bridges not checked; UniProt P06881 90-119, looked up, fragment)”, the “capsaicin-induced blood flow changes (effect in words)” value in series [5] (dural application prior to nasal capsaicin 100 nM) is given as “blocked”. Also, the “capsaicin-induced blood flow change after CGRP antagonist” value in series [5] (prior topical administration, n=3) worked out at 5±4%.
